We go through one molecule from paper PMC11729419, “Thiol-Reactive or Redox-Active: Revising a Repurposing Screen Led to a New Invalidation Pipeline and Identified a True Noncovalent Inhibitor Against Papain-like Protease from SARS-CoV-2” (ACS Pharmacology & Translational Science, 2024).

Test [1] deals with PLpro-NAB C111S (Severe acute respiratory syndrome coronavirus 2, UniProt P0DTD1, C1674S). In kind it is binding, SARS-CoV-2.
Test [2] has as its target T1, PLpro-NAB (Severe acute respiratory syndrome coronavirus 2, UniProt P0DTD1). In kind it is binding, SARS-CoV-2. To be noted: consistent in both DTT and L-Cys buffers.
For test [3], the target named is SARS-CoV-2 PLpro-NAB (Severe acute respiratory syndrome coronavirus 2, UniProt P0DTD1). Briefly: biochemical. Particulars: for HP PLpro-NAB inhibition [%] 20 μM triplicates 1 mM L-cys buffer: hit profiling.
The target in test [4] is T1, PLpro-NAB. Briefly: STD-NMR ligand binding and competition. Set-up: species or system SARS-CoV-2. Particulars: for STD amplification factor AMP: 0.15 mM compound, PLpro/compound 1:100.

Usually inhibition stands for the relative decrease from the control value, in per cent. Take `CCS(=O)(=O)N1CCC([C@@H](C)n2c(C)c(C(=O)NCc3c(OC)cc(C)[nH]c3=O)c3ccccc32)CC1` [CPI-169]: the “Tm / stability of PLpro-NAB C111S” value in test [1] was “increased the Tm”. The “Tm value of PLpro-NAB” value in test [2] is recorded as “concentration-dependent increase in the Tm value”. In addition, the “Inhibition in L-cysteine buffer versus DTT buffer (dose-response)” value in test [3] (1 mM L-cysteine vs 1 mM DTT) was “did not show variations in inhibition potency or thermal stability”. Also, in test [3] (50% inhibition at 20 μM, 1 mM L-cysteine), the “Inhibitory activity on retest in 1 mM L-cysteine” value is recorded as “retained their inhibitory activity”. Besides, the “HC PLpro-NAB inhibition [%] 20 μM triplicates 1 mM DTT buffer” value in test [3] (hit confirmation, 20 μM, 1 mM DTT buffer, average (SD), 20 μM PR619 = 100%, DMSO = 0%, listed as CPI-169 (FhG)) is recorded as 99.81 (2.18) %. In test [3] (hit confirmation, 20 μM, 1 mM DTT buffer, average (SD), 20 μM PR619 = 100%, DMSO = 0%, read-out: HC PLpro-NAB inhibition [%] 20 μM triplicates 1 mM DTT buffer), the inhibition at 20 µM amounted to 96%. Also, the “HP PLpro-NAB inhibition [%] 20 μM triplicates 1 mM L-cys buffer” value in test [3] (20 μM, average (SD), 20 μM PR619 = 100%, listed as CPI-169 (EOS)) is listed as 49.41 (2.14) %; in test [3] (20 μM, average (SD), 20 μM PR619 = 100%, listed as CPI-169 (FhG)), 70.67 (1.71) %. The “Competitive STD-NMR with GRL-0617” value in test [4] is reported as “displacement of CPI-169 from the GRL-0617 binding site”. The “STD amplification factor AMP” value in test [4] (proton H11) turned out to be 0.74; in test [4] (proton H13), 1.19; in test [4] (proton H23) it was 0.43; in test [4] (proton H35), 0.89.
